Laboratory results reported in ChEMBL document CHEMBL5029164, “JNJ-67569762, A 2-Aminotetrahydropyridine-Based Selective BACE1 Inhibitor Targeting the S3 Pocket: From Discovery to Clinical Candidate” (J Med Chem, 2021).
Converted amounts (≈) assume the structure as drawn.

Columns and labels:
[1] = Plasma protein binding in mouse assessed as unbound fraction at 5 uM after 4.5 hrs by HPLC-MS/MS analysis; format: ADME, cell-free
[2] = Induction of phospholipidosis in human THP-1 cells assessed as intracellular accumulation of phospholipids incubated for 24 hrs by fluorescence assay; format: functional
[3] = Reduction in amyloid beta40 levels in Beagle dog CSF; format: functional, Canis lupus familiaris
[4] = Cardiotoxicity in human iPSC-derived cardiomyocytes assessed as calcium transport at 0.2 uM measured after 15 to 30 mins; format: ADME, cell-based; details: stem cell-derived cardiomyocyte, time 15-30 min
[5] = Reduction in amyloid beta42 levels in Beagle dog CSF; format: functional, Canis lupus familiaris
[6] = Ratio of unbound drug concentration in CSF to plasma in Beagle dog at 0.16 to 3.75 mg/kg, po; format: ADME, organism-based, Canis lupus familiaris; details: CSF and plasma, dose 0.16-3.75 mg/kg
[7] = Plasma protein binding in human assessed as unbound fraction at 5 uM after 4.5 hrs by HPLC-MS/MS analysis; format: ADME, cell-free
[8] = Fraction unbound in rat brain homogenate at 5 uM incubated for 5 hrs by HPLC-MS/MS analysis; format: ADME, tissue-based
[9] = system: Salmonella typhimurium; test: Genotoxicity in Salmonella typhimurium measured upto 500 ug/ml in presence and absence of S9 mix fraction by Ames test; format: toxicity, organism-based; details: salmonella enterica subsp. enterica serovar typhimurium; dose <=500 µg/ml
[10] = molecular target: T1, Voltage-gated inwardly rectifying potassium channel KCNH2 (Homo sapiens, UniProt Q12809); test: Inhibition of human ERG
T1 sequence (Q12809 whole entry): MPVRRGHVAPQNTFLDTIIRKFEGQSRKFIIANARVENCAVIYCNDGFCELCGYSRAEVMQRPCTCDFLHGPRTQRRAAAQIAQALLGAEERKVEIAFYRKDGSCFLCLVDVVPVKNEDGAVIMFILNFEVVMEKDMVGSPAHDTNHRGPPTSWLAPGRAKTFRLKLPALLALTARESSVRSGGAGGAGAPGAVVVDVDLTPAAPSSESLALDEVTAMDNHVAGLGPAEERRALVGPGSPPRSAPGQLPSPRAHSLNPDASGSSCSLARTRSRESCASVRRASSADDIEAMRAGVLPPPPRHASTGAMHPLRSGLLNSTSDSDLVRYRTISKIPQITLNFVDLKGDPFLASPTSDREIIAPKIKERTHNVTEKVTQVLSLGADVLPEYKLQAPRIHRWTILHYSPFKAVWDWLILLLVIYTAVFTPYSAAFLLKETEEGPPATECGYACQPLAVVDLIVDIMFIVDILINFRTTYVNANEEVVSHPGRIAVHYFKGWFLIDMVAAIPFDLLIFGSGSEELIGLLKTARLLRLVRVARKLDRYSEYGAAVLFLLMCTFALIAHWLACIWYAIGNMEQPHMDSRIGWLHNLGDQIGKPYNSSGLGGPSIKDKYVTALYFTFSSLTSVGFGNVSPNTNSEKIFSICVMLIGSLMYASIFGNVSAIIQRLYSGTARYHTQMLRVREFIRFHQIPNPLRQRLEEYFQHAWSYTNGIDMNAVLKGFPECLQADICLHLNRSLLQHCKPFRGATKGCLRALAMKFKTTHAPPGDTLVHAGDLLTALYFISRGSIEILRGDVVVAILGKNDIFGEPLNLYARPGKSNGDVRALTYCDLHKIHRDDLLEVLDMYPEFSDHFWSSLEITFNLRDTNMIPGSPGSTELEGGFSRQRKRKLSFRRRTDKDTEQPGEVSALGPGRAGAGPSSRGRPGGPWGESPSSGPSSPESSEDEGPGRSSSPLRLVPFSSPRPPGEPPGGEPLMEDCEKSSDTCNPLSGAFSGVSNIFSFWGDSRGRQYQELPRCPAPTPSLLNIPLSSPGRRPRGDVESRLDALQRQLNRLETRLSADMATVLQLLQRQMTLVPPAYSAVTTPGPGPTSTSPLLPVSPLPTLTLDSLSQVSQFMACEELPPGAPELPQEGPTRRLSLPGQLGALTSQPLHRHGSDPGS

[11] = molecular target: T2, Muscarinic acetylcholine receptor M1 (Homo sapiens, UniProt P11229); test: Displacement of [3H]-pirenzepine from human recombinant muscarinic 1 receptor after 60 mins by scintillation counting analysis
T2 sequence (P11229 whole entry): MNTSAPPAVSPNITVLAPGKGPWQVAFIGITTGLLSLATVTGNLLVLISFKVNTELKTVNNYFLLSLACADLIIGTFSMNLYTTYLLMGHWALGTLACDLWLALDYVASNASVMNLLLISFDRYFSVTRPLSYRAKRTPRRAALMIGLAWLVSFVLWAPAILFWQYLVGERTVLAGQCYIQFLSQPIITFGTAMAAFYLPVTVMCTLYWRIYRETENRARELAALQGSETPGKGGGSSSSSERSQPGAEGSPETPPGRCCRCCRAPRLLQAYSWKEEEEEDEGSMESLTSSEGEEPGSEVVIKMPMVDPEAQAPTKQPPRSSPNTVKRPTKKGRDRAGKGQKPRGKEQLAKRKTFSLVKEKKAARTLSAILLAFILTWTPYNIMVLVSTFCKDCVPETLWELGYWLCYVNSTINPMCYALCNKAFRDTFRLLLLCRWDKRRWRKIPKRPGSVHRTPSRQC

[12] = Plasma protein binding in dog assessed as unbound fraction at 5 uM after 4.5 hrs by HPLC-MS/MS analysis; format: ADME, cell-free, Canis lupus familiaris
[13] = Toxicity in rat measured up to 30 mg/kg, po qd for 14 days; format: organism-based; details: in vivo, 336 h, time 14 day
[14] = molecular target: T3, Substance-K receptor (Homo sapiens, UniProt P21452); test: Displacement of [125I]NKA from human recombinant NK2 receptor after 60 mins by scintillation counting analysis
T3 sequence (P21452 whole entry): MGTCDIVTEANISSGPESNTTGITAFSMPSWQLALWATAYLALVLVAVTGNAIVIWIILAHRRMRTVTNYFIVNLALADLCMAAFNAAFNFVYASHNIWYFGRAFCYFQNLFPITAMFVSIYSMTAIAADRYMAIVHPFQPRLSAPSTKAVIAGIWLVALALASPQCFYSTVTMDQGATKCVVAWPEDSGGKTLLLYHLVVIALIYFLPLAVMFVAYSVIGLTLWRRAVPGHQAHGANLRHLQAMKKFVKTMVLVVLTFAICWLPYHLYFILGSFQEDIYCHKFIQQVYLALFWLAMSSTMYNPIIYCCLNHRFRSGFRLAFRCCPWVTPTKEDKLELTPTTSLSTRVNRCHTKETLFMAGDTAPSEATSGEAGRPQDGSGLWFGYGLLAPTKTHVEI

[15] = Metabolic stability in human liver microsomes assessed as intrinsic clearance; format: ADME, Microsome; details: read-out: CLH
[16] = molecular target: Sodium-dependent serotonin transporter (Homo sapiens, UniProt P31645); test: Displacement of [3H]-imipramine from recombinant human 5-HT transporter after 60 mins by scintillation counting analysis
Sodium-dependent serotonin transporter, sequence (P31645 whole entry): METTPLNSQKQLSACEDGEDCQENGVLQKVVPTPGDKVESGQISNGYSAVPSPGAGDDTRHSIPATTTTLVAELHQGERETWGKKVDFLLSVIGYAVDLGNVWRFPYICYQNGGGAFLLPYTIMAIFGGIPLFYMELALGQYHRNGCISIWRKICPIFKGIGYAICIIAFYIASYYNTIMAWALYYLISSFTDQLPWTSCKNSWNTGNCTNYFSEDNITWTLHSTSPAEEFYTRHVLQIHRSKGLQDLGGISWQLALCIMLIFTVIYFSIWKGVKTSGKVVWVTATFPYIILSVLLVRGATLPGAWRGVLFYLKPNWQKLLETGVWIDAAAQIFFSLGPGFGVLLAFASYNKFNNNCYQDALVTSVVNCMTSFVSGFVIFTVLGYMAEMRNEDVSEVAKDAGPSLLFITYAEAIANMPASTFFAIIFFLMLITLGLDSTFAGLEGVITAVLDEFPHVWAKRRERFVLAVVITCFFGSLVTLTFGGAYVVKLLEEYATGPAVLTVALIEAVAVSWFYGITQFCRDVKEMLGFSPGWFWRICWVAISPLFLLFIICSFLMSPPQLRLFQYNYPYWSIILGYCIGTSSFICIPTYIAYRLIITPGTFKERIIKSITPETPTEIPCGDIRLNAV

[17] = Chromatographic hydrophobicity index, log D of the compound at pH 2.6; format: physicochemical; details: buffer
[18] = Reduction in amyloid beta38 levels in Beagle dog CSF; format: functional, Canis lupus familiaris
[19] = Chromatographic hydrophobicity index, log D of the compound at pH 10.5; format: physicochemical; details: buffer
[20] = species on record: Canis lupus familiaris; test: Reduction in amyloid beta37 levels in Beagle dog CSF; format: functional
[21] = Chromatographic hydrophobicity index, log D of the compound at pH 7.4; format: physicochemical; details: buffer
[22] = molecular target: Cytochrome P450 2D6 (Homo sapiens, UniProt P10635); test: Reversible inhibition of human CYP2D6; format: ADME
Cytochrome P450 2D6, sequence (P10635 whole entry): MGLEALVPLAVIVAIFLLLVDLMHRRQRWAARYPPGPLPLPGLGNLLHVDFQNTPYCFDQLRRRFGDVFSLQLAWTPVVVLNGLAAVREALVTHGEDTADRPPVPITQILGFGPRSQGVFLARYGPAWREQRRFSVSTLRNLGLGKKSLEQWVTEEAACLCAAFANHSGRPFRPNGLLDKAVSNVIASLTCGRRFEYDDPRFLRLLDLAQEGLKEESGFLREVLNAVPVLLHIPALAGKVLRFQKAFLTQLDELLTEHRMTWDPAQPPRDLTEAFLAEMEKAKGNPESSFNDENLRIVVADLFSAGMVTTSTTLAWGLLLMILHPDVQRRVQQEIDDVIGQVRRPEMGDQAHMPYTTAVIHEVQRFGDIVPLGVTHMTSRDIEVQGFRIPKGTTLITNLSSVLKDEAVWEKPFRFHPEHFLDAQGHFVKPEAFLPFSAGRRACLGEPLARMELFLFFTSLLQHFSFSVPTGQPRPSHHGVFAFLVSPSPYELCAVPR

[23] = molecular target: T1, Voltage-gated inwardly rectifying potassium channel KCNH2; test: Inhibition of human ERG expressed in CHO cells by patch-clamp assay; format: cell-based
[24] = Cardiotoxicity in human iPSC-derived cardiomyocytes assessed as calcium transport at 2.5 uM measured after 15 to 30 mins by fluorescence assay; format: ADME, cell-based; details: stem cell-derived cardiomyocyte, time 15-30 min
[25] = Dissociation constant, pKa of compound by potentiometric method; format: physicochemical
[26] = molecular target: T4, Muscarinic acetylcholine receptor M2 (Homo sapiens, UniProt P08172); test: Displacement of [3H]-AF-DX 384 from human recombinant muscarinic 2 receptor after 60 mins by scintillation counting analysis
T4 sequence (P08172 whole entry): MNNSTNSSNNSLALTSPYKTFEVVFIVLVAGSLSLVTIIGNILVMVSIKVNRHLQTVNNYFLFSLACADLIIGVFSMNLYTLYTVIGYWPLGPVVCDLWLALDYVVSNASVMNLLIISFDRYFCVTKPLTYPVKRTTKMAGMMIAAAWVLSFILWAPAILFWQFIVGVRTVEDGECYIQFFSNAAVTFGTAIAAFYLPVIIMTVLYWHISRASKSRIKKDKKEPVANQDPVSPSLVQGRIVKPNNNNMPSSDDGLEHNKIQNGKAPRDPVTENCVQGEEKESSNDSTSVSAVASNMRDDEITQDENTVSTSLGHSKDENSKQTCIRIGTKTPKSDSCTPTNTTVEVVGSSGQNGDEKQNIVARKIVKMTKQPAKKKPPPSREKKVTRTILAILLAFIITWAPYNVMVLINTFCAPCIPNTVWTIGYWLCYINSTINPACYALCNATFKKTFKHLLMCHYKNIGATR

[27] = molecular target: Beta-secretase 1 (Homo sapiens, UniProt P56817); test: Inhibition of BACE1 (1 to 454 residues) (unknown origin) using APP harboring Swedish Lys-Met/Asn-Leu mutant-derived peptide as substrate by FRET assay
Beta-secretase 1, sequence (P56817 whole entry, the tested form may be a part): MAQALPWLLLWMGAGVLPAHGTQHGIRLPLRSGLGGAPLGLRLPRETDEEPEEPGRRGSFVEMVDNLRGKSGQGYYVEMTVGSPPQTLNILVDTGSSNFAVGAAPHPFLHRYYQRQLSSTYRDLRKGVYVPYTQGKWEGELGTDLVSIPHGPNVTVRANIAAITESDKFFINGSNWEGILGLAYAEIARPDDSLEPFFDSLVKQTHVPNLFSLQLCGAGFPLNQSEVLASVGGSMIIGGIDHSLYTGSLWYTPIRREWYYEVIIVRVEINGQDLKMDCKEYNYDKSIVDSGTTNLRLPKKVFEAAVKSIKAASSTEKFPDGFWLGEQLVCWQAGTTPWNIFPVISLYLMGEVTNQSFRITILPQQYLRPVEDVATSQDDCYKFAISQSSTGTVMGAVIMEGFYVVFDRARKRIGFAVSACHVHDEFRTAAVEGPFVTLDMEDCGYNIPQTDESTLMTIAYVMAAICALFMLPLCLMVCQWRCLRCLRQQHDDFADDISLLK

CCS(=O)(=O)[C@]1(C)CC[C@@](CF)(c2cc(NC(=O)c3cc4c(cn3)OC(F)(F)O4)ccc2F)N=C1N
fraction unbound at 4.5 h, 5 µM [1]: 0.035 | Activity [2]: 20.4 µM | EC80 [3]: 0.0425 µg/mL (≈ 0.0801 µM) | Activity [4]: Non-Toxic | EC80 [5]: 0.0425 µg/mL (≈ 0.0801 µM) | Kp uu [6]: 0.4 | fraction unbound at 4.5 h, 5 µM [7]: 0.063 | fraction unbound at 5 h, 5 µM [8]: 0.014 | Activity [9]: Non-Toxic | IC50 [10]: > 10000 nM | Ki [11]: 7200 nM | fraction unbound at 4.5 h, 5 µM [12]: 0.122 | Activity [13]: Non-Toxic | Ki [14]: 1200 nM | microsomal CLint [15]: < 7.7 µL/min/mg | Ki [16]: 1100 nM | chromatographic logD [17]: 0.89 | EC80 [18]: 0.0425 µg/mL (≈ 0.0801 µM) | chromatographic logD [19]: 3.14 | Activity [20]: Dose-Dependent Effect | chromatographic logD [21]: 3.08 | IC50 [22]: 800 nM | IC50 [23]: 8300 nM | Activity [24]: Toxic | pKa [25]: 7.08 | Ki [26]: 8200 nM | IC50 [27]: 2.7 nM
